According to patent US20060292158A1, “Method for the treatment of cancer using a novel pharmaceutical composition containing at least one dolastatin 10 derivative” (priority 2004, published 2006):
Read-outs that look alike come from different tables or passages of the source.

Experiments:
[1] = test system: KPL-4 human breast carcinoma xenograft; assay: Antitumor activity in KPL-4 orthotopic xenograft in athymic nude mice, combination with trastuzumab (Example 1); assay type: in vivo; conditions: monotherapy 3, 4 or 6 mg/kg; one week after final injection; control 2.5% DMSO-saline plus 20 mg/kg human IgG
Experimental: The KPL-4 human breast carcinoma cell line was kindly donated by Prof. Kurebayashi, Kawasaki Medical Center. The cells were cultured in Dulbecco's MEM (Sigma Chemical Co.) supplemented with 5% (v/v) fetal bovine serum (Roche Diagnostics).
One hundred forty (140) 5-week-old female athymic nude mice (BALB/c nu/nu) were purchased from Charles River Japan, Inc. (Yokohama, Japan). The mice were housed in an air-conditioned room (temperature 22±2° C., relative humidity 55±10%) under 12 h light/dark cycles. The mice were given sterilized CE-2 and tap water with 25μg/mL gentamycin ad libitum. […]
The in vivo evaluation procedure for anticancer drugs was based on the methods described by Plowman, et al. (1997) for xenograft models. […] The tumor volume and body weight of each mouse were measured twice a week. […] One week after the final injection, tumor growth inhibition (TGI) was calculated using the formula (1-T/C)×100 (%), where T (treated group) and C (control group) represent the mean tumor volume change. ED50 values were calculated from values of tumor growth inhibition on day 21 using the XL fit program. […]
Packaged software (SAS preclinical package version 5.0,SAS Institute Japan, Ltd.) was used for the statistical analysis. […] ED50s were calculated from values of tumor growth inhibition percentage using XL fit program #509 (MS Excel Add […], ID Business Solutions Ltd.)

[2] = test system: Calu-6 human lung cancer xenograft; assay type: in vivo; conditions: day 32 after inoculation
Experimental: The Calu-6 human lung carcinoma cell line was purchased from American Type Culture Collection (MD, U.S.A.). The cells were cultured in Eagle's MEM (Sigma-Aldrich corporation, MO, U.S.A.) supplemented with 0.1 milli mol/L Non-essential amino acids (Invitrogen corporation, CA, U.S.A.), 1 milli mol/L sodium pyruvate (Invitrogen corporation, CA, U.S.A.), and 10% (v/v) fetal bovine serum (Roche Diagnostics KK, Tokyo, Japan).
60 of 5-week-old male athymic nude mice (BALB/c nu/nu) were purchased from Charles River Japan, Inc. (Yokohama, Japan). All mice were kept for 8 days in the animal facility of Kamakura Research Laboratories of Chugai Pharmaceutical Co., Ltd. before subjection to the experiment.
The title compound was synthesized at Kamakura Research Laboratories of Chugai Pharmaceutical Co., Ltd. Irinotecan (Topotecin™, lot. No. EQAZF13) was obtained from Daiichi Pharmaceutical Co., Ltd. (Tokyo, Japan). The title compound was dissolved in dimethyl sulfoxide (DMSO) and diluted into 2.5 % DMSO solution with saline (For Injection; Ohtsuka Pharmaceutical Industry Co., Ltd., Tokushima, Japan) at the date of administration. Irinotecan was diluted with saline at the date of administration.
The in vivo evaluation procedure for anticancer drugs was based on the methods described by Plowman, et al. (1997) for xenograft models. See, “Anticancer Drug Development Guide: Preclinical Screening, Clinical Trials, and Approval, Teicher B (ed) pp. 101-125, specifically Chap. 6, “Human Tumor Xenograft Models in NCI Drug Development”, hereby incorporated by reference. A single cell suspension of Calu-6 (5.7×10^6 cells per mouse) was inoculated subcutaneously into the right flank of each mouse. The tumor volume was estimated by using the equation ab^2/2, where a and b represent tumor length and width, respectively. Mice bearing tumors of between 181 and 326 mm^3 were selected on day 11 after tumor inoculation and were randomly divided into 10 groups, consisting of 5 mice each. […] Drug administration was initiated after mice were randomized and divided into groups. The tide compound (0.375 mg/kg; 0.75 mg/kg; 1.5 mg/kg or 3 mg/kg), irinotecan (80 mg/kg) and each vehicles were administered intravenously. Tumor volume and body weight of each mouse were measured twice a week. […] Tumor growth inhibition was calculated by using the equation (1-ΔT/ΔC)×100, where ΔT represents the tumor volume difference from the initial treatment date of treated group and ΔC represents the tumor volume difference from the initial treatment date of vehicle group.

Q: For CC[C@H](C)[C@@H]([C@@H](CC(=O)N1CCC[C@H]1[C@H](SC)[C@@H](C)C(=O)N(C)CCc1cccc(O)c1)OC)N(C)C(=O)[C@@H](NC(=O)[C@H](C(C)C)N(C)C)C(C)C [compound of formula (I-A), N-[1-({1-sec-Butyl-4-[2-(2-{[2-(3-hydroxy-phenyl)-ethyl]-methyl-carbamoyl}-1-methylsulfanyl-propyl)-pyrrolidin-1-yl]-2-methoxy-4-oxo-butyl}-methyl-carbamoyl)-2-methyl-propyl]-2-dimethylamino-3-methyl-butyramide], which “volume of tumor in comparison with control” value [1] is on record?
A: decreased significantly

Q: And the tumor growth inhibition ([2]; 0.375 mg/kg i.v. weekly x3)?
A: 11%

Q: What about the tumor growth inhibition ([2]; 0.75 mg/kg i.v. weekly x3) of the same compound?
A: 21%

Q: And the tumor growth inhibition ([2]; 1.5 mg/kg i.v. weekly x3)?
A: 41%

Q: What about the tumor growth inhibition ([2]; 3 mg/kg i.v. weekly x3) of the same compound?
A: 117%
